Literature values, collected in patent USRE39705E1, “Method of treating glutathione deficient mammals” (Vit-Immune, L.C., priority 1998, dated 2007).

Tests used:
[1] = not given; remark: listed apart in the source

N[C@@H](CCC(=O)N[C@@H](CS)C(=O)NCC(=O)O)C(=O)O [glutathione, γ-L-Glutamyl-L-cysteinylglycine]
absorption of oral supplementation by the mammal's cells: not well absorbed | replenishment of intracellular glutathione losses (oral): does not replenish losses inside cells

NC(=O)CC[C@H](N)C(=O)O [L-glutamine]
liver glutathione ([1]; after lethal hepatic injury): preserve liver glutathione

N[C@@H](CS)C(=O)O [Example 1-cysteine, 1-cysteine]
GSH levels ([1]; substituted into the diet in place of the total protein allowance): effective in raising GSH levels

O=C(O)CCCCC1CCSS1 (stereo not drawn) [Alpha lipoic acid, alpha lipoic acid]
intracellular reduced glutathione ([1]; in vitro and in vivo (literature)): substantial increase
